Read-outs that look alike come from different tables or passages of the source.

Data set [1] in a line: In vivo pharmacokinetic study in Sprague-Dawley rats. Conditions: rat; for bioavailability: Sprague-Dawley, plasma, po, 10 mg/kg; for % of Hepatisc Blood Flow: IV (2 mg/kg). On the procedure: This example describes pharmacokinetic (PK) studies of the various indole compounds described herein in rats, a rodent species widely used for pre-clinical toxicology evaluation. In the present studies, the test compounds were given to groups of Sprague-Dawley rats (N=3 in each group) intravenously (IV) at 2 mg/kg or orally (PO) at 10 mg/kg. IV doses were formulated in DMSO, while PO doses were formulated in a 50/50 mixture of PEG400 and Tween 80. Blood samples were collected at pre-dose and over a period of 24 hours post-dose. Plasma concentrations of the indole compounds were determined by HPLC.

For data set [2], the system named is CYP1A1 in human HepG2 cells. The data set is described as follows: EROD assay (7-ethoxy-resorufin-O-deethylase), human HepG2 cells. In kind it is cell-based. Further details: key to activity group based on EC50 values, in the order of increasing activity: (1) active; (2) more active; (3) most active. Conditions: for activity in the human EROD assay compared to ARI-001 / ARI-002, in words / EC50: human HepG2 cells; for EC50: EROD assay, 20 hours treatment. The procedure: (§1) CYP1A1 induction is under the control of the AhR signaling pathway. This Example describes an in vitro assay (7-ethoxy-resorufin-O-deethylase (EROD) assay) that evaluated the AhR modulating activities of the indole compounds described herein. In this assay, the indole compounds were incubated with human HepG2 cells or mouse Hepal-6 cells. The activity of CYP1A1 in the cells was measured by the conversion of substrate 7-ethoxyresorufin, with the readout being a fluorescence signal associated with the conversion product. The EC50 values of the indole compounds as well as the maximum […] induced by them in the assay were determined.
(§2) Human HepG2 cells were obtained from Sigma Aldrich (Catalog 85011430-1VL). Mouse Hepal-6 cells also were obtained from Sigma Aldrich (Catalog 92110305-1V).
(§3) Human HepG2 and Mouse Hepal-6 cells were grown to 60-80% confluency in tissue culture flasks, lifted with non-enzymatic cell dissociation solution (cell stripper), seeded in a 384-well plate at 5,000 cells per well, treated with the test compounds, and incubated for 20 hours overnight at 37° C. The treatment medium was removed and a solution of substrate 7-ethoxyresorufin (ETX) was added to initiate the reaction. The plate was incubated at 37° C. for 30 minutes. The reaction was subsequently terminated by adding tempered methanol. Fluorescent emission was measured at 590 nm with excitation at 530 nm in a FLEXSTATION III instrument (Molecular Devices).

For data set [3], the system named is CYP1A1 in mouse Hepal-6 cells. The data set is described as follows: EROD assay (7-ethoxy-resorufin-O-deethylase), mouse Hepa1-6 cells. It counts as cell-based. The settings on record: for EC50: EROD assay, 20 hours treatment. The procedure: as §1, §2, §3
Data set [4] concerns EMT-6 syngeneic mouse tumor model (breast cancer). As to the kind of experiment: Anti-tumor activity, EMT-6 syngeneic mouse tumor model. Conditions: for anti-tumor potency, in words / tumor growth and survival, in words / complete tumor regression (CR): EMT-6 model; for anti-tumor potency, in words / tumor growth and survival, in words: 40 mpk. It counts as in vivo. On the procedure:
This example describes in vivo studies that evaluated the anti-cancer efficacy of the disclosed indole compounds in syngeneic mouse tumor models. Mice implanted subcutaneously with four types of cancer cells were treated with test indole compounds or vehicle controls as described below.
A monolayer culture of tumor cells was maintained in vitro in DMEM or RPMI1640 medium supplemented with 10% fetal bovine serum at 37° C. in an atmosphere of 5% CO2. Cells in exponential growth phase were harvested and quantitated by cell counter before tumor inoculation. The cell lines used are described in the table below.
Four subcutaneous syngeneic mouse tumor models were generated by innoculating female BALB/C or C57BL/6 mice with cancer cells at their right lower or front flank as detailed in the table below:
Each mouse was inoculated subcutaneously with tumor cells in 0.1 mL of PBS. Treatments were started when the mean tumor size reached approximately 80-120 mm^3 (around 100 mm^3). The administration of the indole compounds and the animal number in each study group are shown in the study design. The date of tumor cell inoculation was denoted as day 0.
The indole compounds were dissolved in DMSO at the final concentration of 26.7 mg/ml and stored at room temperature.
Randomization of animals was started when the mean tumor size reached approximately 90 mm^3 to form the mouse study groups. The randomization was performed based on “Matched distribution” method using the multi-task method (StudyDirector™ software, version 3.1.399.19)/randomized block design. The mouse groups (ten in each group) were treated with vehicle (DMSO) or the indole compounds at a dose of 40 mg/kg by i.p. injection, QD for 28 days or longer.
After tumor cell inoculation, the mice were checked daily for morbidity and mortality. During routine monitoring, the mice were checked for tumor growth and any effects of the treatment on behavior such as mobility, food and water consumption, body weight gain/loss (body weights were measured twice per week after randomization), eye/hair matting, and any other abnormalities. Mortality and observed clinical signs were recorded for individual mice in detail.
Tumor volumes were measured twice per week in two dimensions using a caliper, and the volume was expressed in mm^3 using the formula: V=(L×W×W)/2, where V is tumor volume, L is tumor length (the longest tumor dimension) and W is tumor width (the longest tumor dimension perpendicular to L). Dosing as well as tumor and body weight measurements was conducted in a Laminar Flow Cabinet. The body weights and tumor volumes were measured by using StudyDirector™ software (version 3.1.399.19). Dosing Holiday
Tumor growth inhibition percentage (TGI %) is an indicator for antitumor activity of a drug compound, and expressed as: TGI (%)=100×(1−T/C), where T and C are the mean tumor volume (or weight) of the treated and control groups, respectively, on a given day. Statistical analysis of the difference in mean tumor volume (MTV) among the groups was conducted using the data collected on the day when the MTV of the vehicle group reached the humane endpoints, so that TGI could be derived for all or most mice enrolled in the study.
In Studies 1 and 3, the anti-tumor activity of ARI-001 in parallel with ARI-002 at 160 mg/kg (mpk), and the anti-tumor activity of ARI-087 in parallel with ARI-002 at 40 mpk were assessed using the EMT-6, Pan02, A20, and LL/2 models. Because EMT-6 provides a fast-growing model that enables relatively quick differentiation of performance between compounds, this syngeneic mouse tumor model was chosen for the other studies. In Study 2, the anti-tumor activity of ARI-002 was compared with that of ARI-004 at 10, 40, and 80 mpk. In Study 4, the anti-tumor activity of ARI-087 was compared with that of ARI-140. In Study 5, the anti-tumor activity of ARI-087 was evaluated in parallel with ARI-143 and ARI-149 at 40 mpk. […]

The mark [5] stands for this setting: PO (10 mg/kg) vs IV (2 mg/kg), read-out: F % (bioavailability).
Where [6] appears, read: Mus musculus, EMT6, ip, 720 h, Study 5, EMT-6, 40 mpk i.p. QD, D30, read-out: TGI (tumor growth inhibition).

As for `CNC(=O)c1csc(C(=O)c2c[nH]c3ccccc23)n1` [ARI-004], the bioavailability in data set [1] (setting [5]) was 33.6%. For the same compound, in data set [1], the “% of Hepatisc Blood Flow” value came out at 189%. The “activity in the human EROD assay compared to ARI-001 / ARI-002, in words” value in data set [2] is reported as “less active”. Besides, the “activity in the mouse EROD assay, in words” value in data set [3] is reported as “less active”. Further, the inhibition in vivo at 10 mg/kg in data set [4] (Mus musculus, EMT6, 648 h, Study 2, EMT-6, 10 mpk, D27, read-out: TGI (tumor growth inhibition)) was -38.2%. Further, in data set [4] (Mus musculus, EMT6, 648 h, Study 2, EMT-6, 40 mpk, D27, read-out: TGI (tumor growth inhibition)), the inhibition in vivo at 40 mg/kg worked out at 0.3%. Also, in data set [4] (Mus musculus, EMT6, 648 h, Study 2, EMT-6, 80 mpk, D27, read-out: TGI (tumor growth inhibition)), the inhibition in vivo at 80 mg/kg was found to be 15.8%.
For the compound `Nc1nnc(-c2csc(C(=O)c3c[nH]c4c(F)cccc34)n2)o1` [ARI-118, (4-(5-amino-1,3,4-oxadiazol-2-yl)thiazol-2-yl)(7-fluoro-1H-indol-3-yl)methanone], the bioavailability in data set [1] (setting [5]) was found to be 0.2%. For the same compound, the “IV PK profile compared to ARI-001, ARI-002, and ARI-004, in words” value in data set [1] (IV) is listed as “improved IV PK profiles”. Also, in data set [1], the “% of Hepatisc Blood Flow” value worked out at 17%. In data set [2] (human EROD assay), the “times more active than ARI-001” value was “about 930 times” and the “times more active than ARI-002” value is given as “about 13 times”. Moreover, the “activity group based on EC50 values, in the order of increasing activity” value in data set [2] (human EROD assay, oxadiazole derivatives of ITE) is “most active”. Also, the “activity in the human EROD assay compared to ARI-001 / ARI-002, in words” value in data set [2] was “significantly more (about 4 to 900 times more) active than ARI-001”. In addition, the “activity in the mouse EROD assay, in words” value in data set [3] was “most active among the tested oxadiazole compounds”. Also, in data set [4], the “anti-tumor potency, in words” value is recorded as “superior anti-tumor activity than ARI-087”; the “tumor growth and survival, in words” value was “delay tumor growth and prolong survival”. Also, the “complete tumor regression (CR)” value in data set [4] (Study 4, by day 46) is 1 out of 10. Besides, the inhibition in vivo at 40 mg/kg in data set [4] (Mus musculus, EMT6, ip, 672 h, Study 4, EMT-6, 40 mpk i.p. QD, D28, read-out: TGI (tumor growth inhibition)) turned out to be 54.5%.
For the compound `CCC(=O)c1csc(C(=O)c2c[nH]c3cc(F)c(F)cc23)n1` [ARI-149, 1-(2-(5,6-difluoro-1H-indole-3-carbonyl)thiazol-4-yl)propan-1-one], the bioavailability in data set [1] (setting [5]) was determined as 6.8%; in data set [1] (PO, read-out: absolute oral bioavailability, % of ARI-002) it was 62%. Further, the “IV AUCinf, times higher than ARI-002” value in data set [1] (IV) came to 2.3 times. In addition, in data set [1] (IV), the “plasma clearance, % of that of ARI-002” value is reported as 50%. Also, the “% of Hepatisc Blood Flow” value in data set [1] was found to be 13%. Besides, the “PO AUCinf, times higher than that of ARI-002” value in data set [1] (PO) is listed as “about 1.4 times”. The EC50 is 19.2 nM in data set [2] and 0.6 nM in data set [3]. In data set [4] (setting [6]), the inhibition in vivo at 40 mg/kg was determined as 42.7%.
With `CCC(=O)c1csc(C(=O)c2c[nH]c3cc(F)ccc23)n1` [ARI-143, 1-(2-(6-fluoro-1H-indole-3-carbonyl)thiazol-4-yl)propan-1-one], in data set [1] (setting [5]), the bioavailability turned out to be 19.3%. Moreover, in data set [1] (IV), the “IV AUCinf, times higher than ARI-002” value is reported as 1.5 times and the “plasma clearance, % of that of ARI-002” value is 74%. In addition, the “% of Hepatisc Blood Flow” value in data set [1] is listed as 19%. Besides, in data set [1] (PO), the “PO AUCinf, times higher than that of ARI-002” value amounted to 2.6 times and the “absolute oral bioavailability, times higher than ARI-002” value was found to be 1.8 times. For the same compound, the response in data set [2] was half-maximal at 4.2 nM (EC50). In addition, in data set [3], the EC50 was 2.3 nM. Besides, in data set [4], the “anti-tumor potency, in words” value is “most potent ketone derivative”; the “tumor growth and survival, in words” value was “delay tumor growth and prolong survival”. The “complete tumor regression (CR)” value in data set [4] (Study 5, by day 51) was 2 out of 10. The inhibition in vivo at 40 mg/kg in data set [4] (setting [6]) was 65.9%.

A word on the bioavailability: it is dose-corrected exposure relative to a reference, in per cent. What is called EC50 is the concentration giving half of the maximal effect.

The values are drawn from patent publication US11891386B2, “Indole compounds and their use” (ARIAGEN, INC., priority 2017, dated 2024).
